Earlier results in paper PMC6906348 (Therapeutic Advances in Medical Oncology, 2019).
Like-named read-outs stand apart in the source and are kept apart here.

What was measured:
[1] = system: patients with advanced HCC; conditions: cited from earlier work
[2] = system: patients progressing on or after sorafenib treatment (HCC); conditions: cited from earlier work
[3] = system: patients with MET-high HCC; conditions: MET-high HCC defined by IHC ⩾2+ in ⩾50% of tumor cells; cited from earlier work
[4] = system: Asian patients with advanced HCC; conditions: cited from earlier work
[5] = system: patients with unresectable advanced HCC; conditions: cited from earlier work
[6] = system: patients with unresectable advanced HCC; conditions: cited from earlier work; remark: listed apart in the source

With nivolumab as the compound, how does the overall response rate ([1]; all patients) read?
Its overall response rate is 20%.

And the overall response rate ([1]; sorafenib-treated patients)?
The overall response rate was 14%.

With CNC(=O)c1cc(Oc2ccc(NC(=O)Nc3ccc(Cl)c(C(F)(F)F)c3)c(F)c2)ccn1 [regorafenib] as the compound, how does the overall response rate ([2]; versus 4% in the placebo arm) read?
The overall response rate was 11%.

What about the overall survival ([2]; versus 7.8 months for placebo) of the same compound?
Its overall survival is 10.6 months.

With O=C1NC(=O)[C@@H](c2cn3c4c(cccc24)CCC3)[C@@H]1c1c[nH]c2ccccc12 [tivantinib] as the compound, how does the study outcome [3] read?
Its study outcome is “negative”.

What does the source list for CN1CCC(COc2cnc(-c3cccc(Cn4nc(-c5cccc(C#N)c5)ccc4=O)c3)nc2)CC1 [tepotinib]?
MET-positive patients with partial responses ([4]; MET-positive defined as ⩾50% tumor IHC 2+/3+): 2/7; patients with partial responses ([4]; unselected patients, 2/27): 7.4%; disease control rate ([4]; unselected patients): 37%

With CNC(=O)c1cc(Oc2ccc(NC(=O)Nc3ccc(Cl)c(C(F)(F)F)c3)cc2)ccn1 [sorafenib] as the compound, how does the “hazard ratio (HR), overall survival” value ([5]; sorafenib group versus placebo) read?
Its value is 0.69.

What about the overall response rate ([5]; versus 1% for placebo) of the same compound?
The overall response rate was 2%.

And the “median time to progression (TTP)” value ([5]; versus 2.8 months for placebo)?
Its value is 5.5 months.

And the median overall survival ([5]; versus 7.9 months for placebo)?
The median overall survival was 10.7 months.

And the disease control rate ([5]; versus 32% for placebo)?
Its disease control rate is 43%.

What about the “HR, overall survival” value ([6]; sorafenib group versus placebo) of the same compound?
Its value is 0.68.

What about the median overall survival ([6]; versus 4.2 months for placebo) of the same compound?
Its median overall survival is 6.5 months.
